Test results reported in patent publication US11168073B2, “3,3-difluoroallylamines or salts thereof and pharmaceutical compositions comprising the same” (YUHAN CORPORATION, priority 2018, dated 2021).
Structures can show the parent of a compound that is named as a salt.

Key:
Type in all cases: biochemical
[1] = molecular target: T1, recombinant human MAO-A (monoamine oxidase-A) (Homo sapiens, UniProt P21397); experiment: Activity evaluation on recombinant human MAO-A (Amplex Red/HRP-coupled assay, 0.5 mM tyramine substrate); settings: 0.5 mM tyramine substrate, read-out: Inhibitory Activity (IC50, nM) MAO-A
T1 construct: purchased Sigma-Aldrich
T1 sequence (P21397 1-527): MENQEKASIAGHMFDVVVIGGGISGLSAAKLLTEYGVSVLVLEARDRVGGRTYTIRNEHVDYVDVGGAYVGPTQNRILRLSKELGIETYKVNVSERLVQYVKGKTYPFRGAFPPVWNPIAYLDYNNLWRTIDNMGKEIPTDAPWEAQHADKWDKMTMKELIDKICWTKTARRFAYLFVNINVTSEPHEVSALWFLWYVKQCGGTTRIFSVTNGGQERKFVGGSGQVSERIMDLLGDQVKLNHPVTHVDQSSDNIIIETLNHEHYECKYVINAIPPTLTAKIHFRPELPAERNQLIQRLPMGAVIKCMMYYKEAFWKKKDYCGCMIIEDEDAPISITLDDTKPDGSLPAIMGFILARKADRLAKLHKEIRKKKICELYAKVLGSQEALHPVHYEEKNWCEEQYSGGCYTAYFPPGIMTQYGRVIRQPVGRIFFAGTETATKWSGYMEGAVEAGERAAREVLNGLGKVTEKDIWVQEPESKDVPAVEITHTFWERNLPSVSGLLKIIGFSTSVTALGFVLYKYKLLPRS
Method in brief: (§1)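 Enzyme was preincubated with compounds (8-point 1:3 series, final DMSO <1%) 30 min at 37 °C in 50 mM sodium phosphate pH 7.4, then given 200 uM Amplex Red and 1 U/mL HRP with substrate. H2O2-derived resorufin fluorescence (ex 544/em 590 nm) was followed over 1–2 h; IC50 came from 4-parameter logistic fits of signal-rate inhibition versus DMSO control.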

[2] = molecular target: T2, recombinant human DAO (diamine oxidase) (Homo sapiens, UniProt P19801); experiment: Activity evaluation on recombinant human DAO (Amplex Red/HRP-coupled assay, 1 mM putrescine substrate); settings: 1 mM putrescine substrate, read-out: Inhibitory Activity (IC50, nM) DAO
T2 construct: purchased R&D systems
T2 sequence (P19801 20-751): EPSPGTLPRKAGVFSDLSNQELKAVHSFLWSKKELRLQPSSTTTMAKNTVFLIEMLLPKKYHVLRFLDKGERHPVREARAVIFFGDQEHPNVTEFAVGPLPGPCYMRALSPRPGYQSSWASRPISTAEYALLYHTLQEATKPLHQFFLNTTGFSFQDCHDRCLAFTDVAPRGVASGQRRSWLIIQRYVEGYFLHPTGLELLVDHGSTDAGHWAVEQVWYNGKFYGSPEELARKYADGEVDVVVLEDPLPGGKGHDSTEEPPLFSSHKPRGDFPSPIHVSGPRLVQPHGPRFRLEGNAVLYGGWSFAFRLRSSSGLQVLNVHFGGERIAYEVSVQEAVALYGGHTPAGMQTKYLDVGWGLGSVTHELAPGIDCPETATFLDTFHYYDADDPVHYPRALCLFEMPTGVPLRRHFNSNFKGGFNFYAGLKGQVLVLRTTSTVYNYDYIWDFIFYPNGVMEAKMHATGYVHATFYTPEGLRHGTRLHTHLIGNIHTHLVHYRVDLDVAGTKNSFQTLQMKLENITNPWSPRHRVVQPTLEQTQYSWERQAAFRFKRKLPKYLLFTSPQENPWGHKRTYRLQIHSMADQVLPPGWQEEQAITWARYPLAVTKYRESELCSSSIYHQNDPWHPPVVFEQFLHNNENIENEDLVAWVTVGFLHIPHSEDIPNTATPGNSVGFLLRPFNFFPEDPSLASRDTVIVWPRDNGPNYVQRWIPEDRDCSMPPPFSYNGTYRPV
Method in brief: as §1

recombinant human VAP-1 = molecular target: T3, recombinant human VAP-1 (Homo sapiens, UniProt Q16853); experiment: Activity evaluation on recombinant human VAP-1 (Amplex Red/HRP-coupled hydrogen peroxide assay, benzylamine substrate); settings: recombinant human VAP-1, benzylamine substrate; read-out: Inhibitory Activity (IC50, nM) human VAP-1
T3 construct: purchased R&D systems
T3 sequence (Q16853 1-763): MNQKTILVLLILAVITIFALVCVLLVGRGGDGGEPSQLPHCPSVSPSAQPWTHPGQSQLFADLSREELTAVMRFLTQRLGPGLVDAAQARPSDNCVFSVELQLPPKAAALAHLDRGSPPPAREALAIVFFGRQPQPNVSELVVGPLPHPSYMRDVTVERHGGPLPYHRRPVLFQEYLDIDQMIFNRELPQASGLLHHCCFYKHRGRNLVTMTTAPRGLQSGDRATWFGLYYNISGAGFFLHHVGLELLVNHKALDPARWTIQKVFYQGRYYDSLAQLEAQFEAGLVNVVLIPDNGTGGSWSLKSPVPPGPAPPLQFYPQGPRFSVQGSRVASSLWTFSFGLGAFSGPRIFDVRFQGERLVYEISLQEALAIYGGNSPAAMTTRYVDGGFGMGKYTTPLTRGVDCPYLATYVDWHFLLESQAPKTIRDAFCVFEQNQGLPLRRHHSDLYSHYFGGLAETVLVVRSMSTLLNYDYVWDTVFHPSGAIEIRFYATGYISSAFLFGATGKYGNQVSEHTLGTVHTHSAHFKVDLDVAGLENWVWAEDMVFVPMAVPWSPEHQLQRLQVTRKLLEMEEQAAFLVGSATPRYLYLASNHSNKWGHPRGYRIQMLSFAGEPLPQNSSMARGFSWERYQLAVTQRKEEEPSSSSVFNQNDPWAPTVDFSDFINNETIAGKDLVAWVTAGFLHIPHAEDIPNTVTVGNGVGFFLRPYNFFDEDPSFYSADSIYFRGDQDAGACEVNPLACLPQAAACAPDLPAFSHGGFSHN
Method in brief: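 Recombinant human VAP-1 in 50 mM sodium phosphate pH 7.4 preincubated 30 min at 37 °C with compound (8-point 1:3 series, <1% DMSO), then 1 mM benzylamine, 200 uM Amplex Red, 1 U/mL HRP added. H2O2-derived resorufin fluorescence (ex 544/em 590) followed 1–2 h; IC50 from four-parameter fit of rate inhibition.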

[3] = molecular target: T4, recombinant human MAO-B (monoamine oxidase-B) (Homo sapiens, UniProt P27338); experiment: Activity evaluation on recombinant human MAO-B (Amplex Red/HRP-coupled assay, 1 mM benzylamine substrate); settings: 1 mM benzylamine substrate, read-out: Inhibitory Activity (IC50, nM) MAO-B
T4 construct: purchased Sigma-Aldrich
T4 sequence (P27338 1-520): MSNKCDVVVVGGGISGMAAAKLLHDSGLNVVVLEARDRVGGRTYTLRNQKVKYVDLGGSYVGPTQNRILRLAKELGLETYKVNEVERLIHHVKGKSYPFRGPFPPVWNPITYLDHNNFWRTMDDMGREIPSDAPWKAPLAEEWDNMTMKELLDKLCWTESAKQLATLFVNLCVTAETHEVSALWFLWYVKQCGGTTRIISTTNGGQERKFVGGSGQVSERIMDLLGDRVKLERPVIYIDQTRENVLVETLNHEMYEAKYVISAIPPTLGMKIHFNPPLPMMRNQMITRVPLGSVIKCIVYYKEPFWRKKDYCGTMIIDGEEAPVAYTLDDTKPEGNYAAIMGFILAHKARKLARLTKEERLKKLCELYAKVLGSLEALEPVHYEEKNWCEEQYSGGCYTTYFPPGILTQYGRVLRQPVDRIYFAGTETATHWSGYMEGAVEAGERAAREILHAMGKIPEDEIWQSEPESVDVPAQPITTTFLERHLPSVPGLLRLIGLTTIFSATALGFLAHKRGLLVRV
Method in brief: as §1

SMILES | IC50 [1] [nM] | IC50 [2] [nM] | IC50 (recombinant human VAP-1) [nM] | IC50 [3] [nM]
Cc1c(-c2cccc(-c3nc[nH]n3)c2)cccc1-n1cnn(CC(CN)=C(F)F)c1=O [Example 263, 2-[2-(aminomethyl)-3,3-difluoro-allyl]-4-[2-methyl-3-[3-(1H-1,2,4-triazol-3-yl)phenyl]phenyl]-1,2,4-triazol-3-one Trifluoroacetate] | > 100000 | > 100000 | 29 | > 100000
CCn1cc(-c2ccc(Cn3cnn(CC(CN)=C(F)F)c3=O)cc2)cn1 [Example 264, 2-[2-(aminomethyl)-3,3-difluoro-allyl]-4-[[4-(1-ethylpyrazol-4-yl)phenyl]methyl]-1,2,4-triazol-3-one Trifluoroacetate] | > 100000 | > 100000 | 1.3 | > 100000
CS(=O)(=O)c1ccc(-c2ccc(Cn3cnn(CC(CN)=C(F)F)c3=O)cc2)cc1 [Example 265, 2-[2-(aminomethyl)-3,3-difluoro-allyl]-4-[[4-(4-methylsulfonylphenyl)phenyl]methyl]-1,2,4-triazol-3-one Trifluoroacetate] | > 100000 | > 100000 | 1.4 | > 100000
NCC(Cn1ncn(Cc2ccc(-c3ccc(N4CCNCC4)cc3)cc2)c1=O)=C(F)F [Example 266, 2-[2-(aminomethyl)-3,3-difluoro-allyl]-4-[[4-(4-piperazin-1-ylphenyl)phenyl]methyl]-1,2,4-triazol-3-one Ditrifluoroacetate] | > 100000 | 330 | 9.1 | > 100000
CN(C)c1ccc(-c2ccc(Cn3cnn(CC(CN)=C(F)F)c3=O)cc2)cn1 [Example 267, 2-[2-(aminomethyl)-3,3-difluoro-allyl]-4-[[4-[6-(dimethylamino)-3-pyridyl]phenyl]methyl]-1,2,4-triazol-3-one Trifluoroacetate] | > 100000 | > 100000 | 1.1 | > 100000

Results, then the molecule that gave them:

IC50 [1] [nM] | IC50 [2] [nM] | IC50 (recombinant human VAP-1) [nM] | IC50 [3] [nM] | SMILES
> 100000 | 35000 | 2.3 | > 100000 | Cc1c(-c2ccc(C(F)(F)F)nc2)cccc1-n1cnn(CC(CN)=C(F)F)c1=O [Example 255, 2-[2-(aminomethyl)-3,3-difluoro-allyl]-4-[2-methyl-3-[6-(trifluoromethyl)-3-pyridyl]phenyl]-1,2,4-triazol-3-one Trifluoroacetate]
> 100000 | > 100000 | 2.5 | > 100000 | Cc1c(-c2ccc(N(C)C)nc2)cccc1-n1cnn(CC(CN)=C(F)F)c1=O [Example 256, 2-[2-(aminomethyl)-3,3-difluoro-allyl]-4-[3-[6-(dimethylamino)-3-pyridyl]-2-methyl-phenyl]-1,2,4-triazol-3-one Trifluoroacetate]
> 100000 | > 100000 | 2.4 | 101000 | Cc1c(-c2ccc3c(c2)OCO3)cccc1-n1cnn(CC(CN)=C(F)F)c1=O [Example 257, 2-[2-(aminomethyl)-3,3-difluoro-allyl]-4-[3-(1,3-benzodioxol-5-yl)-2-methyl-phenyl]-1,2,4-triazol-3-one Trifluoroacetate]
> 100000 | > 100000 | 2.5 | > 100000 | Cc1cc(-c2cccc(-n3cnn(CC(CN)=C(F)F)c3=O)c2C)cc2c1NC(=O)CC2 [Example 258, 6-[3-[1-[2-(aminomethyl)-3,3-difluoro-allyl]-5-oxo-1,2,4-triazol-4-yl]-2-methyl-phenyl]-8-methyl-3,4-dihydro-1H-quinolin-2-one Trifluoroacetate]
> 100000 | > 100000 | 1.3 | > 100000 | Cc1c(-c2ccc3c(c2)CCC(=O)N3C)cccc1-n1cnn(CC(CN)=C(F)F)c1=O [Example 259, 6-[3-[1-[2-(aminomethyl)-3,3-difluoro-allyl]-5-oxo-1,2,4-triazol-4-yl]-2-methyl-phenyl]-1-methyl-3,4-dihydroquinolin-2-one Trifluoroacetate]
> 100000 | > 100000 | 3.7 | > 100000 | CCn1cc(-c2cccc(-n3cnn(CC(CN)=C(F)F)c3=O)c2C)cn1 [Example 260, 2-[2-(aminomethyl)-3,3-difluoro-allyl]-4-[3-(1-ethylpyrazol-4-yl)-2-methyl-phenyl]-1,2,4-triazol-3-one Trifluoroacetate]
> 100000 | > 100000 | 6.5 | > 100000 | Cc1c(-c2cnn(C(F)F)c2)cccc1-n1cnn(CC(CN)=C(F)F)c1=O [Example 261, 2-[2-(aminomethyl)-3,3-difluoro-allyl]-4-[3-[1-(difluoromethyl)pyrazol-4-yl]-2-methyl-phenyl]-1,2,4-triazol-3-one Trifluoroacetate]
> 100000 | > 100000 | 7.4 | > 100000 | Cc1c(-c2cnn(C(C)C)c2)cccc1-n1cnn(CC(CN)=C(F)F)c1=O [Example 262, 2-[2-(aminomethyl)-3,3-difluoro-allyl]-4-[3-(1-isopropylpyrazol-4-yl)-2-methyl-phenyl]-1,2,4-triazol-3-one Trifluoroacetate]
